Among the data in patent US10870652B2, “Compounds and methods for modulating bruton's tyrosine kinase” (CORVUS PHARMACEUTICALS, INC., priority 2016, dated 2020) are IC50 values, retold here.

Common to all, as to format: biochemical
Assay [1] addresses T1, ITK (Homo sapiens, UniProt Q08881).
T1 sequence (Q08881 1-620): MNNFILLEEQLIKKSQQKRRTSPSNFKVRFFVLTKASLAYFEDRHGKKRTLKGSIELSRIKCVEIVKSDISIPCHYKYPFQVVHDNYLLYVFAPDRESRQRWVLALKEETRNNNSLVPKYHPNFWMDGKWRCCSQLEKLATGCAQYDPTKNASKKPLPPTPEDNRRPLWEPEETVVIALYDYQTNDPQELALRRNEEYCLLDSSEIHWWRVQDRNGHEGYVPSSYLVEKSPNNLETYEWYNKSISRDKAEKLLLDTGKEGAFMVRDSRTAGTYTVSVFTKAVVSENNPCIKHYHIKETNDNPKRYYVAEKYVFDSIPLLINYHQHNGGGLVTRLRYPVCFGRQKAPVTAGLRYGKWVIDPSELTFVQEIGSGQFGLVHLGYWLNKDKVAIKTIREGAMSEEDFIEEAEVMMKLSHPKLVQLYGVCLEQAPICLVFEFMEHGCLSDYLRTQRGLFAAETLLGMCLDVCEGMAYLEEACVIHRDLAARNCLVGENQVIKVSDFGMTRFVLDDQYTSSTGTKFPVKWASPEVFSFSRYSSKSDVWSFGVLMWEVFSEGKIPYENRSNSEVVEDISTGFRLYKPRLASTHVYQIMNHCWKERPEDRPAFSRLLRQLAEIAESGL
The assay is described as follows: ITK IC50 kinase inhibition assay.

Assay [2] deals with T2, JAK3 (Homo sapiens, UniProt P52333).
T2 sequence (P52333 1-1124): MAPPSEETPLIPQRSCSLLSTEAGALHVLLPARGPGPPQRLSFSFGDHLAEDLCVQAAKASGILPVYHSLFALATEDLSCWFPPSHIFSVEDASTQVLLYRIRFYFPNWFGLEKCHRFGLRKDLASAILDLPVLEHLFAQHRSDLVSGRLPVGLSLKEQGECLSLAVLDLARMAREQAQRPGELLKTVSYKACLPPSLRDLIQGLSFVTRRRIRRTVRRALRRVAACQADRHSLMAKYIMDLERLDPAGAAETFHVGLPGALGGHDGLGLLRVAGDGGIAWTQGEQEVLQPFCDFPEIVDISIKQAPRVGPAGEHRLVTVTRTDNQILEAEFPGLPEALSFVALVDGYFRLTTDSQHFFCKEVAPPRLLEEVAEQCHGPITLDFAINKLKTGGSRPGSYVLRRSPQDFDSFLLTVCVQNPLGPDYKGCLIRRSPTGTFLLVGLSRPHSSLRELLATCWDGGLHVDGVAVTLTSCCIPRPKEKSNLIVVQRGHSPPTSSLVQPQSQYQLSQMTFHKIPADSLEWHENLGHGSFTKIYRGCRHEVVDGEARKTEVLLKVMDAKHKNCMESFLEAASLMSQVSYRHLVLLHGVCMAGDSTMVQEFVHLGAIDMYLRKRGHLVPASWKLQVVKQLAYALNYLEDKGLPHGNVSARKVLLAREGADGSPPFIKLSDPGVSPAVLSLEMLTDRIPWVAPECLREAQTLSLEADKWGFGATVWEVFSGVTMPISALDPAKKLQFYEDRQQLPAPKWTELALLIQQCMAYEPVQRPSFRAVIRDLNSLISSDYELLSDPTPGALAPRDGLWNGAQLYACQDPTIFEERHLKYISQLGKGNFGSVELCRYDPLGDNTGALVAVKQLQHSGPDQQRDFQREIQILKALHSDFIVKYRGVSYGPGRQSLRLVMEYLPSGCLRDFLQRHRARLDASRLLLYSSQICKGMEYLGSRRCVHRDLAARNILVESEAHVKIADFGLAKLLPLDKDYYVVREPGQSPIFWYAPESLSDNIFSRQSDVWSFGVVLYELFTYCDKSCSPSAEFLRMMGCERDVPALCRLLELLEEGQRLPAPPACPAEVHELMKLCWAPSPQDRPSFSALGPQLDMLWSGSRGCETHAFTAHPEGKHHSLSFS
The assay is described as follows: JAK3 IC50 kinase inhibition assay.

Assay [3] addresses BTK (Homo sapiens, UniProt Q06187). The assay can be described thus: BTK IC50 kinase inhibition assay.
The target in assay [4] is T3, TXK (Homo sapiens, UniProt P42681).
T3 sequence (P42681 1-527): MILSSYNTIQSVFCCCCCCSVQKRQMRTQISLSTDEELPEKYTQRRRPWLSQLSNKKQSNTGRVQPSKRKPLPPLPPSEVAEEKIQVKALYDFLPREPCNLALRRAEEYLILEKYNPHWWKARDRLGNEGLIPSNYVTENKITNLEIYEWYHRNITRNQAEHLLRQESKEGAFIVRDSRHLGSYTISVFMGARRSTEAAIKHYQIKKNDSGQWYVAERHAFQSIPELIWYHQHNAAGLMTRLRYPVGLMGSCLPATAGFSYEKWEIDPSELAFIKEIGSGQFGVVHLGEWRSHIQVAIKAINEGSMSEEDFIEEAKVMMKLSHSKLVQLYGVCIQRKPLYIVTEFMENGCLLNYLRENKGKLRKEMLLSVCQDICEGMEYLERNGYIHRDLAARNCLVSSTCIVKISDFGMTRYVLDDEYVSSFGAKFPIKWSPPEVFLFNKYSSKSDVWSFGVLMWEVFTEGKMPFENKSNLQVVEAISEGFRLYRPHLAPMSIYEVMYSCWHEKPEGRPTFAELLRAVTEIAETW
The assay can be described thus: TXK IC50 kinase inhibition assay.

BTK, sequence (Q06187 whole entry): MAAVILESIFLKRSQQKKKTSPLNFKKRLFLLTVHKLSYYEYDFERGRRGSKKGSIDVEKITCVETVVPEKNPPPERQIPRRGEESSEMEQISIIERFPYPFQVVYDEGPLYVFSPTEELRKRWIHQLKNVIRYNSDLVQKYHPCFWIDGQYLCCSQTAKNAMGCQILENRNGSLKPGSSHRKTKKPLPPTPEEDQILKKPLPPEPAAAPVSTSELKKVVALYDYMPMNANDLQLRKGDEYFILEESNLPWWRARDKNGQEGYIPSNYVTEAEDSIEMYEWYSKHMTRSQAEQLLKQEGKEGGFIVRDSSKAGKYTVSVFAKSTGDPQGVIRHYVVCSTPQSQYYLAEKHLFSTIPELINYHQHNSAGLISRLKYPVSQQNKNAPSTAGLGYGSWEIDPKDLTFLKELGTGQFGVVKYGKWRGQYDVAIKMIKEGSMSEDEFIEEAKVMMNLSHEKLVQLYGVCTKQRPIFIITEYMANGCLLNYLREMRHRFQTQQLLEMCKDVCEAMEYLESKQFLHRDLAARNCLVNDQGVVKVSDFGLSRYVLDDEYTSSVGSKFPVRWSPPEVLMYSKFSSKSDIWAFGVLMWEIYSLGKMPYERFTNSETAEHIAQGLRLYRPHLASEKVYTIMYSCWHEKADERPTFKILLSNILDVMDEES

On to `C=CC(=O)N1CCC[C@@H](n2nc(-c3cccc(Oc4ccccc4)c3)c3cncnc32)C1` [Compound A1, (R)-1-(3-(3-(3-phenoxyphenyl)-1H-pyrazolo[3,4-d]pyrimidin-1-yl)piperidin-1-yl)prop-2-en-1-one], for which the IC50 in assay [1] is > 0.5 µM; in assay [2], > 0.5 µM; in assay [3] it was < 0.1 µM; in assay [4] it was 0.1 to 0.5 µM.
For `C=CC(=O)N1CCC[C@@H](n2nc(-c3ccc(Oc4ccccc4)cc3F)c3cncnc32)C1` [Compound A2, (R)-1-(3-(3-(2-fluoro-4-phenoxyphenyl)-1H-pyrazolo[3,4-d]pyrimidin-1-yl)piperidin-1-yl)prop-2-en-1-one], the IC50 is > 0.5 µM in assay [1], 0.1 to 0.5 µM in assay [2], < 0.1 µM in assay [3] and < 0.1 µM in assay [4].
For `C=CC(=O)N1CCC[C@@H](n2nc(-c3ccc(Oc4ccccc4)c(F)c3)c3cncnc32)C1` [Compound A3, (R)-1-(3-(3-(3-fluoro-4-phenoxyphenyl)-1H-pyrazolo[3,4-d]pyrimidin-1-yl)piperidin-1-yl)prop-2-en-1-one], the IC50 was > 0.5 µM in assay [1], > 0.5 µM in assay [2], < 0.1 µM in assay [3] and < 0.1 µM in assay [4].
`C=CC(=O)N1CCC[C@@H](n2nc(-c3ccc(Oc4ccccc4)cc3C)c3cncnc32)C1` [Compound A4, (R)-1-(3-(3-(2-methyl-4-phenoxyphenyl)-1H-pyrazolo[3,4-d]pyrimidin-1-yl)piperidin-1-yl)prop-2-en-1-one]: the IC50 in assay [1] was > 0.5 µM; in assay [2], > 0.5 µM; in assay [3], < 0.1 µM; in assay [4], < 0.1 µM.
In the case of `C=CC(=O)N1CCC[C@@H](n2nc(-c3ccc(Oc4ccccc4)c(C)c3)c3cncnc32)C1` [Compound A5, (R)-1-(3-(3-(3-methyl-4-phenoxyphenyl)-1H-pyrazolo[3,4-d]pyrimidin-1-yl)piperidin-1-yl)prop-2-en-1-one], the IC50 in assay [1] was > 0.5 µM; in assay [2], > 0.5 µM; in assay [3], < 0.1 µM; in assay [4], 0.1 to 0.5 µM.
Turning to `C=CC(=O)N1CC[C@@H](n2nc(-c3ccc(Oc4ccccc4)cc3)c3cncnc32)C1` [Compound A6, (R)-1-(3-(3-(4-phenoxyphenyl)-1H-pyrazolo[3,4-d]pyrimidin-1-yl)pyrrolidin-1-yl)prop-2-en-1-one], the IC50 in assay [1] is > 0.5 µM; in assay [2] it was > 0.5 µM; in assay [3], < 0.1 µM; in assay [4] it was < 0.1 µM.
Consider `C=CC(=O)N1CCC[C@@H]1Cn1nc(-c2ccc(Oc3ccccc3)cc2)c2cncnc21` [Compound A7, (R)-1-(2-((3-(4-phenoxyphenyl)-1H-pyrazolo[3,4-d]pyrimidin-1-yl)methyl)pyrrolidin-1-yl)prop-2-en-1-one], for which the half-inhibitory concentration (IC50) was > 0.5 µM in assay [1], > 0.5 µM in assay [2], < 0.1 µM in assay [3] and 0.1 to 0.5 µM in assay [4].
For `C=CC(=O)N1CCC[C@H]1Cn1nc(-c2ccc(Oc3ccccc3)cc2)c2cncnc21` [Compound A8, (S)-1-(2-((3-(4-phenoxyphenyl)-1H-pyrazolo[3,4-d]pyrimidin-1-yl)methyl)pyrrolidin-1-yl)prop-2-en-1-one], the IC50 was > 0.5 µM in assay [1], > 0.5 µM in assay [2], < 0.1 µM in assay [3] and < 0.1 µM in assay [4].
Regarding `C=CC(=O)N1CCC[C@@H](n2nc(-c3ccc(Oc4ccccc4)cc3)c3cncnc32)C1` [Compound A9, (R)-1-(3-(3-(4-phenoxyphenyl)-1H-pyrazolo[3,4-d]pyrimidin-1-yl)piperidin-1-yl)prop-2-en-1-one], the IC50 in assay [1] is > 0.5 µM; in assay [2], > 0.5 µM; in assay [3], < 0.1 µM; in assay [4], < 0.1 µM.
Take `C=CC(=O)N1CC[C@H](n2nc(-c3ccc(Oc4ccccc4)cc3)c3cncnc32)C1` [Compound A12, (S)-1-(3-(3-(4-phenoxyphenyl)-1H-pyrazolo[3,4-d]pyrimidin-1-yl)pyrrolidin-1-yl)prop-2-en-1-one]: the IC50 was > 0.5 µM in assay [1], > 0.5 µM in assay [2], < 0.1 µM in assay [3] and 0.1 to 0.5 µM in assay [4].
Regarding `C=CC(=O)N1CC(n2nc(-c3ccc(Oc4ccccc4)cc3)c3cncnc32)C1` [Compound A13, 1-(3-(3-(4-phenoxyphenyl)-1H-pyrazolo[3,4-d]pyrimidin-1-yl)azetidin-1-yl)prop-2-en-1-one], the IC50 in assay [1] was > 0.5 µM; in assay [2], > 0.5 µM; in assay [3], 0.1 to 0.5 µM; in assay [4], 0.1 to 0.5 µM.
For `C=CC(=O)N1CC[C@@H](Cn2nc(-c3ccc(Oc4ccccc4)cc3)c3cncnc32)C1` [Compound A14, (R)-1-(3-((3-(4-phenoxyphenyl)-1H-pyrazolo[34-d]pyrimidin-1-yl)methyl)pyrrolidin-1-yl)prop-2-en-1-one], the IC50 was > 0.5 µM in assay [1], > 0.5 µM in assay [2], 0.1 to 0.5 µM in assay [3] and 0.1 to 0.5 µM in assay [4].
For the compound `C=CC(=O)N1CC[C@H](Cn2nc(-c3ccc(Oc4ccccc4)cc3)c3cncnc32)C1` [Compound A15, (S)-1-(3-((3-(4-phenoxyphenyl)-1H-pyrazolo[3,4-d]pyrimidin-1-yl)methyl)pyrrolidin-1-yl)prop-2-en-1-one], the IC50 in assay [1] is > 0.5 µM; in assay [2], > 0.5 µM; in assay [3], < 0.1 µM; in assay [4], 0.1 to 0.5 µM.
With `CC#CC(=O)N1CCC[C@@H](n2nc(-c3ccc(Oc4ccccc4)cc3)c3cncnc32)C1` [Compound A16, (R)-1-(3-(3-(4-phenoxyphenyl)-1H-pyrazolo[3,4-d]pyrimidin-1-yl)piperidin-1-yl)but-2-yn-1-one], the 50% inhibitory concentration (IC50) in assay [1], in assay [2], in assay [3] and in assay [4] was > 0.5 µM throughout.
Take `C=CC(=O)N1CC[C@@H](n2nc(-c3ccc(Oc4ccccc4)cc3F)c3cncnc32)C1` [Compound A17, (R)-1-(3-(3-(2-fluoro-4-phenoxyphenyl)-1H-pyrazolo[3,4-d]pyrimidin-1-yl)pyrrolidin-1-yl)prop-2-en-1-one]: the IC50 in assay [1] is > 0.5 µM; in assay [2], > 0.5 µM; in assay [3] it was < 0.1 µM; in assay [4], < 0.1 µM.
As for `CC#CC(=O)N1CC[C@@H](n2nc(-c3ccc(Oc4ccccc4)cc3)c3cncnc32)C1` [Compound A18, (R)-1-(3-(3-(4-phenoxyphenyl)-1H-pyrazolo[3,4-d]pyrimidin-1-yl)pyrrolidin-1-yl)but-2-yn-1-one], the IC50 in assay [1] was > 0.5 µM; in assay [2], > 0.5 µM; in assay [3], 0.1 to 0.5 µM; in assay [4], > 0.5 µM.

The IC50 is the concentration that inhibits the measured activity by half. A higher IC50 goes with lower potency.
